Measurements reported in ChEMBL document CHEMBL1201862, “PubChem BioAssay data set” (2004).
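Tested at 5 concentrations; 48 h exposure; 96-well plates; endpoints linearly interpolated, else capped at highest concentration. GI50 = concentration required for 50% inhibition of growth.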 Calls of active or inactive are those of the source. Rule as the data show it: active = GI50 up to about 1.1 µM and inactive = higher.

Columns and labels:
Experiment in all cases: growth of human tumour cells (NCI), 48 h
OVCAR-8 = system: OVCAR-8
HCT-116 = system: HCT-116
MOLT-4 = system: MOLT-4
K562 = system: K562
A498 = system: A498
SW-620 = system: SW-620
TK-10 = system: TK-10
CAKI-1 = system: CAKI-1
HCC 2998 = system: HCC 2998
UACC-62 = system: UACC-62
U-251 = system: U-251
SF-539 = system: SF-539
RPMI-8226 = system: RPMI-8226
LOX IMVI = system: LOX IMVI
IGROV-1 = system: IGROV-1
HOP-92 = system: HOP-92
NCI-H522 = system: NCI-H522
SF-268 = system: SF-268

Measured: GI50

CCc1c(OC(C)=O)c2c(NC3OC(COC(C)=O)C(OC(C)=O)C(OC(C)=O)C3OC(C)=O)nc(SC)nc2oc1=O (configuration not stated)
inactive: OVCAR-8 > 100 µM | HCT-116 > 100 µM | MOLT-4 > 100 µM | K562 > 100 µM | A498 > 100 µM | SW-620 > 100 µM | TK-10 > 100 µM | CAKI-1 > 100 µM | HCC 2998 > 100 µM | UACC-62 > 100 µM | U-251 > 100 µM | SF-539 > 100 µM | RPMI-8226 > 100 µM | LOX IMVI > 100 µM | IGROV-1 > 100 µM | HOP-92 > 100 µM

S=C1CNC(=S)CN1
inactive: NCI-H522 > 100 µM | OVCAR-8 > 100 µM | HCT-116 > 100 µM | MOLT-4 > 100 µM | K562 > 100 µM | A498 > 100 µM | SW-620 > 100 µM | TK-10 > 100 µM | CAKI-1 > 100 µM | HCC 2998 > 100 µM | UACC-62 > 100 µM | U-251 > 100 µM | SF-268 > 100 µM | SF-539 > 100 µM | RPMI-8226 > 100 µM | LOX IMVI > 100 µM | IGROV-1 > 100 µM | HOP-92 > 100 µM

Cc1ccc(S(=O)(=O)N/N=C/CN2C(=O)c3ccccc3C2=O)cc1
inactive: NCI-H522 > 100 µM | OVCAR-8 > 100 µM | HCT-116 > 100 µM | MOLT-4 > 100 µM | K562 > 100 µM | A498 > 100 µM | SW-620 > 100 µM | TK-10 > 100 µM | CAKI-1 > 100 µM | HCC 2998 > 100 µM | UACC-62 89.5 µM | U-251 > 100 µM | SF-539 > 100 µM | RPMI-8226 > 100 µM | LOX IMVI > 100 µM | IGROV-1 > 100 µM

CNC(=O)C1CCc2nnc(-c3ccccc3)n21 (configuration not stated)
inactive: NCI-H522 > 100 µM | HCT-116 > 100 µM | MOLT-4 > 100 µM | K562 > 100 µM | A498 > 100 µM | SW-620 > 100 µM | TK-10 > 100 µM | CAKI-1 > 100 µM | HCC 2998 > 100 µM | UACC-62 > 100 µM | U-251 > 100 µM | SF-268 > 100 µM | SF-539 > 100 µM | RPMI-8226 > 100 µM | IGROV-1 > 100 µM

CC(=O)Oc1ccc2c(c1)C(=O)c1nc(C)c(C)nc1C2=O
inactive: NCI-H522 50.6 µM | OVCAR-8 45.1 µM | HCT-116 43.7 µM | MOLT-4 41.8 µM | K562 47 µM | A498 > 63.4 µM | SW-620 46.5 µM | TK-10 > 100 µM | CAKI-1 > 76.6 µM | HCC 2998 21.4 µM | UACC-62 17.5 µM | U-251 51.6 µM | SF-268 94.2 µM | SF-539 25.8 µM | RPMI-8226 39.8 µM | LOX IMVI 39.4 µM | IGROV-1 46.8 µM | HOP-92 > 87.1 µM

CC(C)=CC(=O)Cc1nc2ccc([N+](=O)[O-])cc2[nH]c1=O
inactive: NCI-H522 23.9 µM | OVCAR-8 > 100 µM | HCT-116 > 100 µM | MOLT-4 25.2 µM | K562 83.8 µM | A498 > 100 µM | SW-620 > 100 µM | TK-10 > 100 µM | CAKI-1 > 100 µM | UACC-62 > 100 µM | SF-268 > 100 µM | SF-539 > 100 µM | RPMI-8226 17.3 µM | LOX IMVI > 100 µM | IGROV-1 > 100 µM | HOP-92 > 100 µM

O=[N+]([O-])c1ccc(Cl)c(C2SCc3nc4ccccc4n32)c1 (configuration not stated)
inactive: NCI-H522 22.3 µM | OVCAR-8 43.3 µM | HCT-116 31.6 µM | MOLT-4 24.2 µM | K562 27.7 µM | A498 32.3 µM | SW-620 35 µM | TK-10 64.6 µM | CAKI-1 20.1 µM | HCC 2998 71.4 µM | UACC-62 39.9 µM | U-251 41.8 µM | SF-268 29.8 µM | SF-539 31.9 µM | RPMI-8226 31.2 µM | IGROV-1 46.2 µM | HOP-92 16.1 µM

CN(C)CCn1cnc2ncccc2c1=O
inactive: NCI-H522 > 100 µM | OVCAR-8 > 100 µM | HCT-116 > 100 µM | MOLT-4 > 100 µM | K562 > 100 µM | SW-620 > 100 µM | TK-10 > 100 µM | CAKI-1 > 100 µM | HCC 2998 > 100 µM | UACC-62 > 100 µM | U-251 > 100 µM | SF-268 > 100 µM | SF-539 > 100 µM | LOX IMVI > 100 µM | IGROV-1 > 100 µM | HOP-92 > 100 µM
